Measurements from patent US20070098735A1, “Methods for the Elimination of Pathogens and Other Particulate Agents” (priority 2005, published 2007).

Columns and labels:
[1] = test system: Murine macrophage lines (RAW264.7, J774.A1 or RAW264NO-); assay: Phagocytosis assay in vitro (uptake of Alexa Fluor 488-labeled particles); format: cell-based; design: effect of LR-disrupting drugs on HSP70-mediated phagocytosis: dose or concentration left out as unconfirmed; settings: for uptake of labeled S. cerevisiae as compared to treatment with HSP70 (specificity controls): equimolar to HSP70 100 μg/ml, BSA 100 μg/ml, concavalin A 6 μg/ml, adjuvants 10 μl/well, ADP, ATP 3 mM
Method: Phagocytosis Assay in vitro. RAW 264.7, RAW264.7 (NO-) and J774A.1 cells were cultured in DMEM or RPMI (RAW NO-) with 10% FCS, harvested, and washed. 3×10^5 cells/well were incubated in serum-free Earle's minimal essential medium (EMEM) in a 24-well plate for 1 hour at 37° C. Alexa Fluor® 488-labeled particles (inert polystyrene microspheres; or yeast, Saccharomyces cerevisiae or Gram-negative bacteria, Escherichia coli, 40 particles/macrophage) were added and co-incubated in a dark environment for 60 minutes in serum free EMEM with or without HSPs, LPS, or control proteins. At the end of 60 minutes incubation, the plate was covered in a dark container on ice. Specific measures were taken to exclude the fluorescence that resulted from particles that were outside of the cell or sticking to the surface of the cell. […] Specifically, trypan blue (0.8 mg/ml) was added for 60 seconds and plates were analyzed immediately using FluorImager SI (Molecular Dynamics/Amersham). Since the emission of Alexa Fluor® 488, about 519 nm at an excitation of about 490 nm, falls within the absorbance range of trypan blue (475-675 nm), the fluorescence of the sample only represents the intracellular fluorescence. External or surface-bound fluorescence is quenched. Using Student's t test, the results were analyzed and P-values were calculated.
HSP-mediated phagocytosis was quantified by measuring the internalized fluorescence measured by FluorImager SI and Relative Mean Fluorescence Intensity (RMFI) was compared between the treatment groups (as indicated). All the treatment groups were compared to medium alone using the Student's t test and significance denoted by P<0.01. The error bar represents one standard deviation. The results shown are a cumulative analysis of 3 experiments, 3 wells/group.

[2] = test system: CD4+ T cells purified from spleens of DO 11.10 mice; assay: Proliferation of CD4+ T cells after MHC-II presentation of OVA-coated yeast by macrophages (FACS); format: cell-based; settings: cytochalasin-D treatment
Method: Proliferation of CD4+ T cells and INF-γ (interferon gamma) release. Unlabeled S. cerevisiae (80 μg) was incubated with excess chicken ovary albumin (OVA) at 37° C. for 1 hour and washed repeatedly to eliminate free OVA protein. S. cerevisiae-OVA complexes (OVA-coated yeast) were administered to macrophages treated with or without HSP70. Macrophages were then washed and irradiated at 12,000 rads and assessed for viability by trypan blue exclusion. Subsequently, they were co-cultured with CD4+ T lymphocytes that were purified from spleens of DO 11.10 mice and labeled with carboxyfluoroscein succinimidyl ester (CSFE). […] Following the 48-hour incubation, proliferation of CD4+ cells was determined with FACS and IFN-γ release in the supernatant was tested by enzyme-linked immunosorbent assay (ELISA; Pierce, Ill.).
Alexafluor labeled S. cerevisiae were coated with whole ovalbumin (OVA) protein 1 mg/ml by co-incubation at 37° C. for 20 minutes and washed until free OVA protein was removed (washes were tested by gel electrophoresis using SDS-PAGE and immunoblotting). […] Resultant proliferation of the CSFE-labeled CD4+ was measured by FACS as an indirect measure of the amount of OVA protein processed and its peptide epitope presented in context of MHC-II. […]

[3] = test system: full thickness surgical wounds on the dorsum of BALB/cJ mice; assay: Closure of full thickness surgical wounds, percent wound closure; format: in vivo; settings: day 2 post surgery; for wound healing on day 2: 30 μg/dose
Method: Surgery and Treatment. Mice were anesthetized using Ketamine (2.0 mg/mouse) and Xylazine (0.1 mg/mouse) were administered intraperitoneally (IP) and the dorsal skin was shaved. After sterile prepping of the area, a full thickness circular wound, 8 mm diameter, was made on the dorsal skin using a disposable biopsy punch (Miltex Inc, York, Pa.) on the midline of the dorsum approximately at the iliac crest. The mice were then randomly assigned into the treatment groups. Initial wound measurements were performed while the mice were still anesthetized. Mice were then treated on days 0, 2, 4, and 6 unless otherwise specified. All agents used as treatment were diluted in 0.5 ml of PBS and injected using a 25-gauge needle in the subcutaneous space in the nape of the neck. The surgical procedures, post-operative monitoring, and safety concerns were approved by the Institutional Animal Care and Usage Committee.
Measurements and Analysis. Wound healing of open wounds is a complex process with many parameters to consider. […] The wound surface area was determined by measuring the craniocaudal and lateromedial distances using vernier calipers in perpendicular axis on days 0, 2, 4, 6, 9, and 11 postoperatively unless noted. Changes in wound area were expressed as percent wound closure. Wound closure data was plotted as average percent wound closure ±SEM unless otherwise noted. All calculations and data analysis were performed using Microsoft Excel and Sigma Plot. Sigma Plot was used to perform Student's t-tests for reported P values.
Full thickness surgical wounds were created on the dorsum of BALB/cJ mice as described in Methods. Wounds were made on day 0. Subsequently, the wounds were treated with exogenous injections of HSP70, HSP90, gp96 (30 μg/dose) or buffer administered subcutaneously (SC) on days 0, 2, 4 and 6 following surgery (FIG. 6A). The wounds were measured on days 0, 2, 4, 6, 9, 11 unless otherwise noted. Wounds were measured serially, percent wound closure was calculated and plotted against time in order to quantitate the rate of healing by secondary intention. […] Data is plotted as average percent wound closure ±SEM on days indicated. Two mice from each treatment group (PBS (n=12), HSP70 (n=11), HSP90 (n=12), and gp96 (n=11)) were sacrificed for histology on days 2, 4, and 6 post-surgery (data not shown). The P values obtain using the Student's t-test.
Results are of average percent wound closure ±SEM on day 2 post surgery. The *P values were obtained using the Student's t-test by comparing HSP treatment to all of the non-HSP control treatments. The least significant P value was reported. […] Doses higher than 50 μg/dose were not tested.

Molecule: Nc1ncnc2c1ncn2[C@@H]1O[C@H](COP(=O)(O)OP(=O)(O)O)[C@@H](O)[C@H]1O [ADP, adenosine diphosphate]
- uptake of labeled S. cerevisiae as compared to treatment with HSP70 (specificity controls) [1]: ineffective

Molecule: Nc1ncnc2c1ncn2[C@@H]1O[C@H](COP(=O)(O)OP(=O)(O)OP(=O)(O)O)[C@@H](O)[C@H]1O [ATP, adenosine triphosphate]
- uptake of labeled S. cerevisiae as compared to treatment with HSP70 (specificity controls) [1]: ineffective

Molecule: C=CCn1c(=O)n([C@@H]2O[C@H](CO)[C@@H](O)[C@H]2O)c2nc(N)[nH]c(=O)c21 [LRB, Loxoribine]
- dose dependence of inhibitory effect on HSP70-mediated phagocytosis ([1]; LRB 0-330 μM, HSP70 100 μg/ml): titratable by dose

Molecule: C=C1[C@@H](C)[C@H]2[C@H](Cc3ccccc3)NC(=O)[C@]23[C@H](OC(C)=O)/C=C/[C@@](C)(O)C(=O)[C@@H](C)C/C=C/[C@H]3[C@@H]1O [cytochalasin-D, reference compound]
- effect on HSP70-mediated internalization (actin polymerization inhibited) ([1]; cytochalasin-D 4 μM with HSP70): showed inhibition of the effects of HSP70
- effect on CD4+ proliferation caused by HSP70-treatment [2]: abrogated the proliferation caused by HSP70-treatment

Molecule: C[C@@H]1[C@H](O)[C@@H](C)/C=C/C=C/CC/C=C/C=C/C=C/C=C/C(O[C@H]2O[C@H](C)[C@@H](O)[C@H](N)[C@@H]2O)CC2O[C@](O)(CC(O)C(O)CCC(O)CC(O)CC(O)CC(=O)O[C@H]1C)CC(O)C2C(=O)O (some centres unmarked) [nystatin]
- effect of LR-disrupting drugs on HSP70-mediated phagocytosis ([1]; nystatin or MCD, labeled yeast 40 particles/macrophage): HSP70-mediated phagocytosis was inhibited

Molecule: O=c1[nH]c(=O)c2[nH]c(=O)[nH]c2[nH]1 [uric acid, reference compound]
- wound healing on day 2 [3]: 13%
- wound closure of non-HSP controls compared to PBS control [3]: not significantly different to the PBS control

Molecule: beta galactosidase
- uptake of labeled S. cerevisiae as compared to treatment with HSP70 (specificity controls) [1]: None of control proteins used enhanced uptake

Molecule: bovine serum albumin [BSA]
- uptake of labeled S. cerevisiae as compared to treatment with HSP70 (specificity controls) [1]: None of control proteins used enhanced uptake

Molecule: concavalin A
- uptake of labeled S. cerevisiae as compared to treatment with HSP70 (specificity controls) [1]: None of control proteins used enhanced uptake

B1: phosphorylase B (protein, UniProt P00489 2-843, looked up)
Glycogen phosphorylase, …: SRPLSDQEKRKQISVRGLAGVENVTELKKNFNRHLHFTLVKDRNVATPRDYYFALAHTVRDHLVGRWIRTQQHYYEKDPKRIYYLSLEFYMGRTLQNTMVNLALENACDEATYQLGLDMEELEEIEEDAGLGNGGLGRLAACFLDSMATLGLAAYGYGIRYEFGIFNQKICGGWQMEEADDWLRYGNPWEKARPEFTLPVHFYGRVEHTSQGAKWVDTQVVLAMPYDTPVPGYRNNVVNTMRLWSAKAPNDFNLKDFNVGGYIQAVLDRNLAENISRVLYPNDNFFEGKELRLKQEYFVVAATLQDIIRRFKSSKFGCRDPVRTNFDAFPDKVAIQLNDTHPSLAIPELMRVLVDLERLDWDKAWEVTVKTCAYTNHTVLPEALERWPVHLLETLLPRHLQIIYEINQRFLNRVAAAFPGDVDRLRRMSLVEEGAVKRINMAHLCIAGSHAVNGVARIHSEILKKTIFKDFYELEPHKFQNKTNGITPRRWLVLCNPGLAEIIAERIGEEYISDLDQLRKLLSYVDDEAFIRDVAKVKQENKLKFAAYLEREYKVHINPNSLFDVQVKRIHEYKRQLLNCLHVITLYNRIKKEPNKFVVPRTVMIGGKAAPGYHMAKMIIKLITAIGDVVNHDPVVGDRLRVIFLENYRVSLAEKVIPAADLSEQISTAGTEASGTGNMKFMLNGALTIGTMDGANVEMAEEAGEENFFIFGMRVEDVDRLDQRGYNAQEYYDRIPELRQIIEQLSSGFFSPKQPDLFKDIVNMLMHHDRFKVFADYEEYVKCQERVSALYKNPREWTRMVIRNIATSGKFSSDRTIAQYAREIWGVEPSRQRLPAPDEKIP
notes: control protein of molecular weight corresponding to the HSPs
- uptake of labeled S. cerevisiae as compared to treatment with HSP70 (specificity controls) [1]: None of control proteins used enhanced uptake
- wound healing on day 2 [3]: 19%
- wound closure of non-HSP controls compared to PBS control [3]: not significantly different to the PBS control
